In US10597388B2, “Pyridazinone herbicides” (FMC CORPORATION, priority 2014, dated 2020):

Legend:
Assay type in all cases: in vivo
[1] = system: ragweed (common ragweed, Ambrosia elatior); experiment: Test C greenhouse herbicide test, pre- and postemergence
How it was run: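 Visual ratings on a 0 to 100 scale (0 = no effect, 100 = complete control) versus untreated controls, scored 13–15 d after treatment. Soil-applied preemergence to seeded loam/sand; foliar postemergence to 1- to 4-leaf plants (2–18 cm) in peat-vermiculite mix; compounds formulated in solvent plus surfactant.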

[2] = system: chickweed (common chickweed, Stellaria media); experiment: Test C greenhouse herbicide test, postemergence
How it was run: (§1)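 Ratings are visual scores from 0 (no effect) to 100 (complete control), made against controls 13–15 d after treatment. Postemergence sprays were applied in the greenhouse to plants 2–18 cm tall (1- to 4-leaf stage) in peat-moss/vermiculite potting medium.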

kochia (Kochia scoparia) = experiment: Test C greenhouse herbicide test, postemergence
How it was run: as §1

[3] = system: oat, wild (wild oat, Avena fatua); experiment: Test C greenhouse herbicide test, postemergence
How it was run: as §1

[4] = system: waterhemp_RES1 (ALS & Triazine resistant common waterhemp, Amaranthus rudis); experiment: Test E greenhouse herbicide test, postemergence
How it was run: (§2)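 Visual injury scored 0 (no effect) to 100 (complete control) versus untreated plants, 14 to 21 d after treatment in the greenhouse. Plants were treated postemergence at 1- to 4-leaf stage, 2–18 cm height, in peat-moss/vermiculite medium.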

[5] = system: waterhemp_RES2 (ALS & HPPD resistant common waterhemp, Amaranthus rudis); experiment: Test E greenhouse herbicide test, postemergence
How it was run: as §2

[6] = system: sedge, umbrella (small-flower umbrella sedge, Cyperus difformis); experiment: Test B flooded paddy test; details: 250 g ai/ha, Flood; visual rating on scale of 0 to 100 where 0 is no effect and 100 is complete control; 13 to 15 d after treatment
How it was run: (§3)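 Plants grown to the 2-leaf stage. At treatment, pots were flooded to 3 cm above the soil, compound was applied directly to the paddy water, and that depth was held throughout. After 13 to 15 d in the greenhouse, response was rated visually against controls on a 0 (no effect) to 100 (complete control) scale.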

[7] = system: barnyardgrass (Echinochloa crus-galli); experiment: Test B flooded paddy test; details: 250 g ai/ha, Flood; visual rating on scale of 0 to 100 where 0 is no effect and 100 is complete control; 13 to 15 d after treatment
How it was run: as §3

[8] = system: ducksalad (Heteranthera limosa); experiment: Test B flooded paddy test; details: 250 g ai/ha, Flood; visual rating on scale of 0 to 100 where 0 is no effect and 100 is complete control; 13 to 15 d after treatment
How it was run: as §3

rice (Oryza sativa) = experiment: Test B flooded paddy test; details: 250 g ai/ha, Flood; visual rating on scale of 0 to 100 where 0 is no effect and 100 is complete control; 13 to 15 d after treatment
How it was run: as §3

[9] = Postemergence, 31 g ai/ha, 0 to 100 scale (0 no effect, 100 complete control)
[10] = Postemergence, 125 g ai/ha, scale 0 to 100, 0 is no effect, 100 is complete control
[11] = Postemergence, 250 g ai/ha, scale 0 to 100, 0 no effect, 100 complete control, 13 to 15 d
[12] = Preemergence, 31 g ai/ha, scale 0 to 100, 0 is no effect, 100 is complete control
[13] = Preemergence, 62 g ai/ha, scale 0 to 100, 0 is no effect, 100 is complete control
[14] = Preemergence, 125 g ai/ha, scale 0 to 100, 0 is no effect, 100 is complete control
[15] = Preemergence, 250 g ai/ha, scale 0 to 100 (0 no effect, 100 complete control)
[16] = postemergence, 62 g ai/ha, scale 0 to 100, 0 no effect, 100 complete control
[17] = 31 g ai/ha, visual, scale 0 no effect to 100 complete control
[18] = 62 g ai/ha, scale 0 to 100 (0 no effect, 100 complete control)
[19] = 125 g ai/ha, scale 0 to 100 (0 no effect, 100 complete control)
[20] = 250 g ai/ha, scale 0 to 100 (0 no effect, 100 complete control)

Compound | Plant response rating, Ragweed [1, 10] | Plant response rating, Ragweed [1, 11] | Plant response rating, Ragweed [1, 12] | Plant response rating, Ragweed [1, 13] | Plant response rating, Ragweed [1, 14] | Ragweed plant response rating [1, 15] | Ragweed plant response rating [1, 16] | Chickweed plant response rating [2, 9] | Plant response rating, Chickweed [2, 10] | Plant response rating, Chickweed [2, 11] | Chickweed plant response rating [2, 16] | Plant response rating, Kochia (kochia (Kochia scoparia); [10]) | Plant response rating, Kochia (kochia (Kochia scoparia); [11]) | Kochia plant response rating (kochia (Kochia scoparia); [16]) | Plant response rating, Oat, Wild [3, 10] | Plant response rating, Oat, Wild [3, 11] | Oat, Wild plant response rating [3, 16] | Plant response rating, Waterhemp_RES1 [4, 17] | Plant response rating, Waterhemp_RES1 [4, 19] | Plant response rating, Waterhemp_RES1 [4, 20] | also measured
CCC(=O)Oc1c(C)nn(C)c(=O)c1-c1c(C)sc2ccc(C)cc12 [Compound 42] | 98 | 100 | 90 | 90 | 95 | 100 | 85 | 90 | 100 | 100 | 100 | 100 | 100 | 100 | 90 | 95 | 90 | 75 | 70 | 98 | Ragweed plant response rating [1, 9]: 90; Kochia plant response rating (kochia (Kochia scoparia); [9]): 90; Oat, Wild plant response rating [3, 9]: 75; Plant response rating, Waterhemp_RES1 [4, 18]: 75; Plant response rating, Waterhemp_RES2 [5, 17]: 60; Plant response rating, Waterhemp_RES2 [5, 18]: 65; Plant response rating, Waterhemp_RES2 [5, 19]: 70; Plant response rating, Waterhemp_RES2 [5, 20]: 80; Plant response rating, Sedge, Umbrella [6]: 0; Plant response rating, Barnyardgrass [7]: 0; Plant response rating, Ducksalad [8]: 0; Plant response rating, Rice (rice (Oryza sativa)): 0
Cc1cc(C)c2sc(C)c(-c3c(OC(=O)OCCCl)c(C)nn(C)c3=O)c2c1 [Compound 85] | 85 | 90 | 80 | 90 | 98 | 98 | 85 | 90 | 95 | 100 | 95 | 60 | 70 | 70 | 95 | 90 | 90 | 80 | 75 | 80 | Plant response rating, Waterhemp_RES2 [5, 17]: 40; Plant response rating, Waterhemp_RES2 [5, 19]: 40; Plant response rating, Waterhemp_RES2 [5, 20]: 50; Plant response rating, Sedge, Umbrella [6]: 80; Plant response rating, Barnyardgrass [7]: 50; Plant response rating, Ducksalad [8]: 50; Plant response rating, Rice (rice (Oryza sativa)): 50
CCOC(=O)Oc1c(C)nn(C)c(=O)c1-c1c(C)sc2c(C)cc(C)cc12 [Compound 83] | 90 | 85 | 85 | 100 | 95 | 95 | 85 | 90 | 95 | 100 | 95 | 65 | 80 | 60 | 90 | 95 | 90 | 70 | 80 | 70 | Plant response rating, Waterhemp_RES2 [5, 17]: 30; Plant response rating, Waterhemp_RES2 [5, 19]: 40; Plant response rating, Waterhemp_RES2 [5, 20]: 50; Plant response rating, Sedge, Umbrella [6]: 90; Plant response rating, Barnyardgrass [7]: 60; Plant response rating, Ducksalad [8]: 70; Plant response rating, Rice (rice (Oryza sativa)): 30
